Data set [1] concerns conditioned avoidance response (CAR). The data set is described as follows: conditioned avoidance response (CAR) in rats, shuttle box technique, oral. It is filed as in vivo. The following applies: Rattus norvegicus, read-out: ORAL CAR-ED50. As for the experimental part: The apparatus employed is a box having a six-inch barrier separating two equal compartments. The floor of the left side of the box contains an electrified grid by means of which an intermittent shock is administered. The other side is not electrified. Rats are trained by placing them individually in the electrified compartment of the box and administering a foot shock which causes the rat to jump the barrier to the non-electrified side. […] The test drug is then administered in various doses to different groups of rats and the effect of the treatment in terms of the number of rats which fail to jump the barrier before receiving a foot shock is measured. That dose of test drug which will reduce the number of conditioned animals jumping the barrier before receiving a foot shock by one-half is referred to as the CAR-ED50.

In the next data set the test system is phenylquinone writhing. Put plainly: Reduction of phenylquinone writhing in mice (analgesic). It is filed as in vivo. The settings on record: Mus musculus, po.
Another data set relates to pernicious preening. The data set is described as follows: Prevention of pernicious preening in mice (anti-psychotic or analgetic). It is filed as in vivo. The settings on record: Mus musculus, po.
Another data set has as its system reserpine ptosis. Put plainly: Prevention of reserpine ptosis in mice (anti-depressant). In kind it is in vivo.
For data set [2] the following is noted: compared with imipramine; cited from earlier work.
The conditions of data set [3]: U.S. Pat. No. 3,381,009; cited from earlier work.
The next data set concerns schizophrenic patients. The following applies: et al. (1973), cited from earlier work.
Setting [4] is: rats, oral, dose reducing by one-half the number of conditioned animals jumping the barrier before foot shock.

Structures can show the parent of a compound that is named as a salt. Where two headings read alike, the source gives them in different places.

For `COc1ccccc1N1CCN(CCCCn2nc3ccccn3c2=O)CC1` [Formula I, R^1 = H, R^2 = 2-CH3 O, 2-[4-[4(2-Methoxphenyl)-1-piperazinyl]-butyl]-1,2,4-triazolo[4,3-a]pyridin-3-(2H)-one Hydrochloride], the ED50 – broadly, the midpoint of the dose-response relation – in data set [1] (setting [4]) amounted to 18.4 mg/kg.

Turning to `O=c1n(CCCCN2CCN(c3cccc(Cl)c3)CC2)nc2ccccn12` [Formula I, R^1 = H, R^2 = 3-Cl, 2-[4-[4-(3-Chlorophenyl)piperazin-1-yl]butyl]-1,2,4-triazolo[4,3-a]pyridin-3-(2H)-one], the ED50 in the data set with phenylquinone writhing worked out at 23 mg/kg; in the data set on pernicious preening, 8 mg/kg; in data set [1] (setting [4]), 9 mg/kg. Moreover, the “activity in prevention of reserpine ptosis” value with reserpine ptosis (at 15.7 mg/kg (p.o.)) is “inactive”.

For `O=c1n(CCCN2CCN(c3cccc(Cl)c3)CC2)nc2ccccn12` [Trazodone, 2-[3-[4-(3-chlorophenyl)-1-piperazinyl]-propyl]-1,2,4-triazolo[4,3-a]pyridin-3(2H)-one], the clinical antidepressant effectiveness entry in data set [2] was “equivalent in effectiveness to imipramine”. The “side effects in clinical use” value in data set [2] is “fewer side effects”. For the same molecule, the “pharmacological actions in animal tests” value in data set [3] is “tranquilizing action, hypotensive action, and analgesic action”. In the data set with schizophrenic patients (Ban), the “effect on depressive symptoms exhibited by schizophrenics” value was “improvement in depressive symptoms”. Also, the “anti-psychotic action in schizophrenic patients” value with schizophrenic patients (Galvan) was “minimal”. In addition, the ED50 in the data set on pernicious preening stood at 43 mg/kg; with reserpine ptosis (Mus musculus, po) it was 36 mg/kg; in data set [1] (setting [4]) it was 45.4 mg/kg.

`CN(C)CCCN1c2ccccc2Sc2ccc(Cl)cc21` [Chlorpromazine]: the ED50 in data set [1] (po) is 38.7 mg/kg.

Regarding `Cl.O=c1n(CCCCN2CCN(c3cccc(C(F)(F)F)c3)CC2)nc2ccccn12` [Formula I, R^1 = H, R^2 = 3-CF3, 2-[4-[4-[3-(Trifluoromethyl)phenyl]-1-piperazinyl]butyl]-1,2,4-triazolo[4,3-a]pyridin-3(2H)-one Hydrochloride], in data set [1] (setting [4]), the ED50 was determined as 11.4 mg/kg.

The values are drawn from patent US4465683A, “Anti-psychotic agents” (priority 1979, dated 1984).
